Measured values from patent publication US10072096B2, “Modified glycoprotein, protein-conjugate and process for the preparation thereof” (SynAffix B.V., priority 2013, dated 2018).

Assay: Stability studies of succinimides 67-69 in PBS with or without glutathione, product ratio by LC-MS
Format: physicochemical
Details: 37° C.
Procedure: One of succinimide conjugates 67-69 (1 mg) was dissolved in DMF (400 μL) followed by the addition of buffer solution 1, 2 or 3 (800 μL). Buffer solution 1 is PBS, buffer solution 2 is PBS+1 mM glutathione (GSH, reduced) and buffer solution 3 is PBS+1 mM glutathione (oxidized). Final concentration of glutathione (through dilution with DMF) is […]. The samples were incubated at 37° C. and measured in time. Ratio of products was determined by LC-MS.

[1] = 48 h, buffer 2 (PBS+1 mM glutathione, reduced; final 0.71 mM)
[2] = 48 h, buffer 3 (PBS+1 mM glutathione, oxidized; final 0.71 mM)
[3] = 120 h, buffer 2 (PBS+1 mM glutathione, reduced; final 0.71 mM)
[4] = 120 h, buffer 3 (PBS+1 mM glutathione, oxidized; final 0.71 mM)

| SMILES | Relative ratio: GS adduct (glutathione adduct formed by reverse Michael, then GSH addition) (48 h, buffer 1 (PBS)) | Relative ratio: Hydro pro (hydrolyzed succinimide) (48 h, buffer 1 (PBS)) | Relative ratio: Succinimide (starting succinimide) (48 h, buffer 1 (PBS)) | Relative ratio: GS adduct (glutathione adduct formed by reverse Michael, then GSH addition) [1] | Relative ratio: Hydro pro (hydrolyzed succinimide) [1] | Relative ratio: Succinimide (starting succinimide) [1] | Relative ratio: GS adduct (glutathione adduct formed by reverse Michael, then GSH addition) [2] | Relative ratio: Hydro pro (hydrolyzed succinimide) [2] | Relative ratio: Succinimide (starting succinimide) [2] | Relative ratio: GS adduct (glutathione adduct formed by reverse Michael, then GSH addition) (120 h, buffer 1 (PBS)) | Relative ratio: Hydro pro (hydrolyzed succinimide) (120 h, buffer 1 (PBS)) | Relative ratio: Succinimide (starting succinimide) (120 h, buffer 1 (PBS)) | Relative ratio: GS adduct (glutathione adduct formed by reverse Michael, then GSH addition) [3] | Relative ratio: Hydro pro (hydrolyzed succinimide) [3] | Relative ratio: Succinimide (starting succinimide) [3] | Relative ratio: GS adduct (glutathione adduct formed by reverse Michael, then GSH addition) [4] | Relative ratio: Hydro pro (hydrolyzed succinimide) [4] | Relative ratio: Succinimide (starting succinimide) [4] |
| --- | --- | --- | --- | --- | --- | --- | --- | --- | --- | --- | --- | --- | --- | --- | --- | --- | --- | --- |
| O=C(CCCN1C(=O)CC(SCCC(=O)NCc2ccccc2)C1=O)NCCOCCOCCNC(=O)c1ccc2ccc3cccc4ccc1c2c34 (stereo not drawn) [Compound 68] | 0 | 21 | 79 | 9 | 16 | 75 | 7 | 13 | 80 | 0 | 53 | 47 | 17 | 41 | 42 | 16 | 35 | 49 |
| O=C(CCCN1C(=O)CC(SCC(=O)NCc2ccccc2)C1=O)NCCOCCOCCNC(=O)c1ccc2ccc3cccc4ccc1c2c34 (stereo not drawn) [Compound 67] | 0 | 43 | 57 | 41 | 18 | 41 | 31 | 12 | 57 | – | – | – | 52 | 38 | 3 | 59 | 28 | 9 |
| O=C(CCCN1C(=O)CC(SCCCC(=O)NCc2ccccc2)C1=O)NCCOCCOCCNC(=O)c1ccc2ccc3cccc4ccc1c2c34 (stereo not drawn) [Compound 69] | 0 | 25 | 75 | 6 | 14 | 79 | 4 | 11 | 85 | 0 | 63 | 37 | 12 | 39 | 49 | 10 | 33 | 57 |
